{
  "source": "patent US9732151B2",
  "about": "“Biomarkers for TSLP treatment” (Merck Sharp & Dohme Corp., priority 2011, dated 2017)",
  "key": {"[1]": {"test_system": "biomarker genes in lung tissue of TSLP Tg mice", "assay": "qRT-PCR of biomarker genes in lung tissue, steroid-treated TSLP Tg mice", "assay_type": "in vivo", "procedure": "TSLP Tg mice, on the BALB/c background, were obtained from the laboratory of Steven Ziegler. Zhou et al., Nat. Immunol. 6:1047-53 (2005). Non-transgenic littermates served as control mice. BALB/c mice (for ovalbumin (OVA)-induced asthma experiments) were purchased from the Jackson Laboratory. The standard model of OVA-induced asthma described below was used. In dexamethasone-treatment experiments, 12 week-old TSLP Tg mice were injected i.p. daily for 2 weeks with 2 mg/kg dexamethasone 21-phosphate disodium salt (Sigma) in sterile PBS, or with sterile PBS alone as a control. Colonies were maintained in a specific pathogenic-free environment.\nHarvest of murine BAL fluid, BAL cells, and lung tissue: BAL fluid was isolated by washing the lung (through the trachea) with 1mL of PBS. Lavage fluid was kept on ice and centrifuged at 400g for 5 min. The supernatant was frozen for cytokine analysis, and the cell pellet was resuspended in 1mL of PBS for total viable cell count by Vi-CELL ([…]) and cell differentials by cytospin. Slides were air-dried, fixed with 95% ethanol, and stained with Wright-Giemsa (Sigma-Aldrich). A minimum of 200 cells were counted under the microscope per slide for cell differentials. The postcaval lung lobe and BAL cells were collected and snap-frozen in liquid nitrogen for qRT-PCR analysis as described previously for tissue (Chan et al., J. Exp. Med. 203:2577-87 (2006)) and below for BAL cells. The single left lung lobe was excised for histology and clinical scoring as described below.\n(§1) mRNA isolation from BAL cells and qRT-PCR: Total RNA was isolated from BAL cells using the RNeasy method (Qiagen, Valencia, Calif.) and reverse-transcribed using WT-OVATION ® (chemicals, assays, and reagents for nucleic acid sequence amplification, sequencing and sequence analysis and detection) Pico System (NuGen Technologies, San Carlos Calif.). Primers were designed using Primer Express software (Applied Biosystem, Foster City, Calif.) or obtained commercially from Applied Biosystems (ABI). qRT-PCR was performed on 10 ng of cDNA from each sample as described previously. Chan et al., J. Exp. Med. 203:2577-87 (2006)."}, "[2]": {"test_system": "biomarkers in BAL fluid or cell mRNA", "assay": "Table VIII summary: biomarkers down with steroids in BAL fluid or BAL cell mRNA", "assay_type": "in vivo, mice", "text": "as §1\nWestern blot analysis of BAL fluid samples: Western blot analysis was performed on BAL fluid samples. 200 uL of each BAL fluid sample was acetone precipitated in 4 volumes of cold acetone overnight and resuspended in 1× NUPAGE® (chemical preparations used for life sciences research) LDS sample loading buffer. An equal amount was separated on a 4-12% NUPAGE® (chemical preparations used for life sciences research) gels, and gels were electroblotted onto PVDF membranes overnight at 10V in NUPAGE® (chemical preparations used for life sciences research) transfer buffer. Membranes were blocked in 5% fat-free milk in TBS/T (10mM TrisHC1 pH 7.5, 100 mM NaC1, 0.1% TWEEN® 20 (polysorbate 20)) for 1 hour and incubated with specific antibodies according to the manufacturer's instructions in 1% milk in TBS/T for another 2 hours. Blots were incubated with HRP-labeled secondary antibodies (chicken anti-goat) IgG, R&D Systems, Minneapolis, Minn. or donkey anti-rabbit Ig-G, GE Healthcare, Piscataway, N.J.) in 1% milk in TB S/T for another hour and detection was performed with ECL+(GE Healthcare). Primary antibodies used included anti-mouse LCN2, anti-mouse sICAM-1, anti-human sICAM-1 (for monkey studies), anti-mouse GP-39, anti-mouse YM1, and anti-mouse pIgR (all from R&D Systems); and anti-mouse UG, anti-mouse AMCase, anti-human AMCase (for monkey studies), anti-mouse CLCA3, and anti-human CLCA1 (for monkey studies) (all from Santa Cruz Biotechnology, Santa Cruz, Calif.). Polyclonal anti-mouse Reg3γ was generated at Schering-Plough Biopharma. After autoradiography visualization, membranes were dried and scanned on a Typhoon 9400 (GE Healthcare) for ECL+(457 nm excitation and 520BP40 emission). Image analysis was conducted using ImageQuant v5.2 (GE Healthcare) and band intensity reported as sum of pixel values above background.\nELISAs: Mouse LCN2, GP-39, sICAM-1, and YM1 proteins were quantified using QUANTIKINE® (in vitro immunoassay kits) or DUOSET® (biological reagents for use in research applications to identify cytokines by immunoassay) ELISA kits (R&D Systems) using a Vmax spectrophotometer with SoftMax Pro software (Molecular Devices); mouse IL-4, IL-5, and IL-13 were measured using a Luminex 100 machine with LINCOPLEX® (panels for taking immunoassay measurements and testing cytokine and endocrine hormones) multiplex kits (Millipore) and analyzed with MasterPlex software (Miraibio). Monkey YKL-40 was quantified via ELISA (Quidel), analyzed as above."}, "[3]": {"test_system": "biomarker genes in skin of calcipotriol treated mice", "assay": "Vitamin D (calcipotriol) induced skin inflammation, real-time PCR of skin mRNA, +/- anti-TSLP", "assay_type": "in vivo, mice (Balb/c)", "conditions": "calcipotriol 2 nmol/ear daily, skin at day 8 (FIG. 5)", "procedure": "(§2) Vitamin D Induced Skin Inflammation: The vitamin D analogue, calcipotriol (Tocris, Ellisville, Mo.), was dissolved in ethanol and was applied daily to both sides of the ears at a final concentration of 2 nmol/ear. Control animals were given ethanol only. Ear swelling was measured daily using an engineer's pressure gauge (Peacock, Japan) and blood was collected. The blood was spun at 10.000 rpm for 5 minutes to separate the serum, which was frozen at −80 C. until analyzed by ELISA. Calcipotriol applications were stopped on day 8 (Balb/c mice), ears were harvested and fixed in 10% formalin for pathological evaluation or frozen directly in liquid nitrogen for mRNA extraction.\nNeutralization Experiments: mice were treated with 0.1, 0.4, 1, 4, 12, 40 and 120 mgs per kg (mpk) of a rat anti-mouse TSLP antibody (designated “22E5”) subcutaneously (s.c.) one day (d−1) prior to VitD3 treatment. Control mice received isotype antibody at 4 and 40 mpk. The mice were sacrificed at day 8.\nReal-time PCR was conducted on mRNA extracted from skin tissue of mice treated with calcipotriol in the absence or the presence of an antagonistic anti-TSLP antibody or an isotype control"}, "[4]": {"test_system": "biomarker genes in skin of TSLPR KO mice", "assay": "Calcipotriol skin inflammation in TSLPR KO mice, real-time PCR of skin mRNA", "assay_type": "in vivo", "conditions": "calcipotriol vs ethanol", "procedure": "as §2, with “Mice: Six- to eight-week-old Balb/c were obtained from Jackson Labs (Bar Harbour, Me.). TSLPR KO mice were obtained from Dr. W. Leonard, NIH, Bethesda, Md. (Al Shami et al., J. Exp. Med. 200:159-168 (2004). Age-matched males were used for the time-course study and females for two efficacy studies. Vitamin” for “Vitamin”, “-80” for “−80”, “extraction. […] Similarly, real-time PCR was conducted on mRNA extracted from skin tissue of TSLPR KO mice treated with either ethanol (vehicle control) or calcipotriol.” for “extraction.”"}, "[5]": {"test_system": "biomarker proteins in BAL fluid of HDMA-challenged monkeys", "assay": "BAL fluid biomarkers (western blot, ELISA) in HDMA-challenged monkeys before and after corticosteroid therapy", "assay_type": "in vivo, cynomolgus macaques (Macaca fascicularis)", "method": "Western blot analysis of BAL fluid samples: Western blot analysis was performed on BAL fluid samples. 200 uL of each BAL fluid sample was acetone precipitated in 4 volumes of cold acetone overnight and resuspended in 1× NUPAGE® (chemical preparations used for life sciences research) LDS sample loading buffer. An equal amount was separated on a 4-12% NUPAGE® (chemical preparations used for life sciences research) gels, and gels were electroblotted onto PVDF membranes overnight at 10V in NUPAGE® (chemical preparations used for life sciences research) transfer buffer. Membranes were blocked in 5% fat-free milk in TBS/T (10mM TrisHC1 pH 7.5, 100 mM NaC1, 0.1% TWEEN® 20 (polysorbate 20)) for 1 hour and incubated with specific antibodies according to the manufacturer's instructions in 1% milk in TBS/T for another 2 hours. Blots were incubated with HRP-labeled secondary antibodies (chicken anti-goat) IgG, R&D Systems, Minneapolis, Minn. or donkey anti-rabbit Ig-G, GE Healthcare, Piscataway, N.J.) in 1% milk in TB S/T for another hour and detection was performed with ECL+(GE Healthcare). Primary antibodies used included anti-mouse LCN2, anti-mouse sICAM-1, anti-human sICAM-1 (for monkey studies), anti-mouse GP-39, anti-mouse YM1, and anti-mouse pIgR (all from R&D Systems); and anti-mouse UG, anti-mouse AMCase, anti-human AMCase (for monkey studies), anti-mouse CLCA3, and anti-human CLCA1 (for monkey studies) (all from Santa Cruz Biotechnology, Santa Cruz, Calif.). […] After autoradiography visualization, membranes were dried and scanned on a Typhoon 9400 (GE Healthcare) for ECL+(457 nm excitation and 520BP40 emission). Image analysis was conducted using ImageQuant v5.2 (GE Healthcare) and band intensity reported as sum of pixel values above background.\nAt this time, animals were challenged with nebulized HDMA (1 to 2500 AU/mL for 4 minutes) at a concentration that induced an early asthmatic response, defined as a 100% increase in lung resistance, 40% decrease in dynamic compliance, or decline in arterial oxygen saturation to ≦70%. Airway inflammation and reactions to nebulized histamine and methacholine 24 hours after allergen challenge were measured periodically to confirm chronic asthmatic responses. Wardle-Fick methods were used to obtain BAL fluid. BAL cells were then separated from the fluid phase. […] In corticosteroid treatments experiments, animals were challenged with HDMA and BAL fluid was collected 24 hours later (“Pre”)."}, "[6]": {"test_system": "HDMA-challenged monkeys", "assay": "Asthma symptoms in HDMA-induced asthma in nonhuman primates after corticosteroid treatment", "assay_type": "in vivo, cynomolgus macaques (Macaca fascicularis)", "conditions": "high-dose corticosteroids for 2 weeks, data not shown", "text": "House mite allergen (HDMA)-induced asthma in nonhuman primates: Juvenile macaques (Cynomolgus fascicularis, 30 to 42 months of age) were purchased from Alphagenesis (Yemassee, S.C.). Animals were sensitized to HDMA over a 7.5 month period by intraperitoneal injection of 312 AU Dermatophagoides pteronyssinus extract (Greer Laboratories, Lenoir, N.C.) absorbed to IMJECT® (reagents used in connection with enhancing immune responses) Alum (Pierce, Rockford, Ill.) administered every two weeks until HDMA-specific IgE titers approached levels in control allergic serum, and then at 4-week intervals until aeroallergen challenge. At this time, animals were challenged with nebulized HDMA (1 to 2500 AU/mL for 4 minutes) at a concentration that induced an early asthmatic response, defined as a 100% increase in lung resistance, 40% decrease in dynamic compliance, or decline in arterial oxygen saturation to ≦70%. Airway inflammation and reactions to nebulized histamine and methacholine 24 hours after allergen challenge were measured periodically to confirm chronic asthmatic responses. Wardle-Fick methods were used to obtain BAL fluid. BAL cells were then separated from the fluid phase. Mass spectrometry compared BAL fluid from sensitized animals before and after HDMA challenge. In corticosteroid treatments experiments, animals were challenged with HDMA and BAL fluid was collected 24 hours later (“Pre”). Animals then received weekly doses of methylprednisolone succinate (4.5 mg/kg intramuscularly) for two weeks, followed by a single dose of methylprednisolone acetate (10 mg/kg […].) one week later at the time of allergen challenge. BAL fluid was collected 24 hours following challenge (“Post”). Animal husbandry was conducted under USDA guidelines. All protocols were approved by the Institutional Animal Care and Use Committee of East Carolina University."}},
  "data": [
    {"smiles": "C[C@@H]1C[C@H]2[C@@H]3CCC4=CC(=O)C=C[C@]4(C)[C@@]3(F)[C@@H](O)C[C@]2(C)[C@@]1(O)C(=O)CO", "note": "[Steroids, dexamethasone]", "values": [
      {"measurement": "Down with Steroids (Lung Tissue): CLCA3", "setting": "[1]", "result": "— (a dash indicates a biomarker not reduced upon treatment)"},
      {"measurement": "Down with Steroids (Lung Tissue): Chi3l4 (YM2)", "setting": "[1]", "result": "— (a dash indicates a biomarker not reduced upon treatment)"},
      {"measurement": "Down with Steroids (Lung Tissue): ECP (Ear11)", "setting": "[1]", "result": "— (a dash indicates a biomarker not reduced upon treatment)"},
      {"measurement": "Down with Steroids (Lung Tissue): FCGBP", "setting": "[1]", "result": "— (a dash indicates a biomarker not reduced upon treatment)"},
      {"measurement": "Down with Steroids (Lung Tissue): ICAM-1", "setting": "[1]", "result": "— (a dash indicates a biomarker not reduced upon treatment)"},
      {"measurement": "Down with Steroids (Lung Tissue): LCN2", "setting": "[1]", "result": "— (a dash indicates a biomarker not reduced upon treatment)"},
      {"measurement": "Down with Steroids (Lung Tissue): PGLYRP1", "setting": "[1]", "result": "— (a dash indicates a biomarker not reduced upon treatment)"},
      {"measurement": "Down with Steroids (Lung Tissue): RETNLβ", "setting": "[1]", "result": "— (a dash indicates a biomarker not reduced upon treatment)"},
      {"measurement": "Down with Steroids (Lung Tissue): Reg3γ", "setting": "[1]", "result": "— (a dash indicates a biomarker not reduced upon treatment)"},
      {"measurement": "Down with Steroids (BAL fluid or cell mRNA): AMCase (Chia)", "setting": "[2]", "result": "— (a dash indicates a biomarker not reduced upon treatment)"},
      {"measurement": "Down with Steroids (BAL fluid or cell mRNA): ECP (Ear11)", "setting": "[2]", "result": "— (a dash indicates a biomarker not reduced upon treatment)"},
      {"measurement": "Down with Steroids (BAL fluid or cell mRNA): LTF", "setting": "[2]", "result": "— (a dash indicates a biomarker not reduced upon treatment)"},
      {"measurement": "Down with Steroids (BAL fluid or cell mRNA): MMP12", "setting": "[2]", "result": "— (a dash indicates a biomarker not reduced upon treatment)"},
      {"measurement": "Down with Steroids (BAL fluid or cell mRNA): Reg3γ", "setting": "[2]", "result": "— (a dash indicates a biomarker not reduced upon treatment)"}
    ]},
    {"smiles": "C=C1/C(=C\\C=C2/CCC[C@]3(C)[C@@H]([C@H](C)/C=C/[C@@H](O)C4CC4)CC[C@@H]23)C[C@@H](O)C[C@@H]1O", "note": "[calcipotriol]", "values": [
      {"measurement": "upregulation of EAR11, MMP12, LCN2, YM1, YM2, YKL-40, Reg3 g, PGLYRP1, CD44 mRNA in skin", "setting": "[3]", "result": "≥ 2", "unit": "fold"},
      {"measurement": "EAR11, MMP12, and YM2 mRNA in skin", "setting": "[4]", "result": "not upregulated"}
    ]},
    {"smiles": "C[C@H]1C[C@@H]2[C@H]([C@@H](O)C[C@@]3(C)[C@H]2CC[C@]3(O)C(=O)COC(=O)CCC(=O)O)[C@@]2(C)C=CC(=O)C=C12", "note": "[corticosteroid, methylprednisolone succinate]", "values": [
      {"measurement": "disease biomarkers in BAL fluid", "setting": "[5]; HDMA-challenged monkeys, 2 weeks of corticosteroid therapy (FIG. 4)", "result": "Reduction"},
      {"measurement": "expression of LCN2, UG, pIgR, PAP, and CLCA1 in BAL fluid", "setting": "[5]; Post vs Pre corticosteroid, trending downward, data not shown", "result": "not significantly reduced"},
      {"measurement": "GP-39 in BAL fluid", "setting": "[5]; by ELISA, Post vs Pre corticosteroid (FIG. 4B)", "result": "significantly reduced"},
      {"measurement": "AMCase, sICAM-1, CLCA1 in BAL fluid", "setting": "[5]; by western blot, Post vs Pre corticosteroid (FIG. 4A)", "result": "significantly reduced"},
      {"measurement": "airway eosinophil recruitment", "setting": "[6]", "result": "reduced"},
      {"measurement": "asthma symptoms", "setting": "[6]", "result": "reduced"},
      {"measurement": "lung function", "setting": "[6]", "result": "improved"}
    ]}
  ]
}
